Assay results reported in patent US9724537B2, “Abnormal electrical conduction blocking apparatus using photodynamic therapy (PDT)” (Keio University, priority 2006, dated 2017).

How the values were obtained:
[1] = tested on: rat cardiac muscle cells in primary culture; assay: Pulsation and cell conditions of cardiac muscle cells in primary culture after PDT; type: cell-based
Experimental: Cardiac muscle cells in primary culture were purchased in suspension and seeded on a 96-well microplate. Cells were cultured at 37° C. under 5% CO2, and cells on days 3 and 7 of culture were used. The cardiac muscle cells in primary culture were pulsatile, and pulsations among cells were synchronizing.
Cardiac muscle cells in primary culture were adjusted to a density of 2.0×10^4 cells/well. As a photosensitizer talaporfin sodium was dissolved in a medium at various concentrations and added at a concentration of 0.1 ml/well. After 1 to 2 h of loading, laser irradiation was performed, and the medium was replaced after the completion of irradiation.
At this time, a 0.5-cm^2 irradiation field (=area of well) was irradiated with a continuous semiconductor laser beam (peak wavelength, 670.8 nm) under various conditions. […]
(§1) Laser intensity: 150 mW/cm^2
Total energy density: 1, 2, 3, 5 J/cm^2
In Table 1, 1d, 2d, and 3d refer to one, two, and three days after PDT, respectively. μg refers to the photosensitizer concentration in μg/ml. Numerical values in Table 1 are (number of samples in which pulsation restarted)/(total number of samples).

[2] = tested on: myoblast strain H9c2 (2-1) derived from the rat cardiac muscle; assay: PDT cell lethality (CCK-8) in cell strain H9c2 (2-1); type: cell-based
Experimental: Using a skeletal muscle-like myoblast strain H9c2 (2-1) derived from the rat cardiac muscle, the relationship between the photosensitizer concentration and the cell lethality and the laser output required to induce cell death were investigated.
The above-mentioned cells were subcultured in a D-MEM+10% FBS medium, confluent cells were isolated, seeded on a 96-well microplate, and cultured at 37° C. under 5% CO2 for one day.
The cultured cells were adjusted to a density of 2.0×10^4 cells/well. As a photosensitizer, talaporfin sodium was dissolved in a medium at various concentrations and added at a concentration of 0.1 ml/well. After 1 to 2 h of loading, cells were irradiated with a laser beam. After completion of irradiation, the medium was replaced.
At this time, in a 0.5-cm^2 irradiation field (=area of the well) was irradiated with a continuous semiconductor laser beam (peak wavelength, 670.8 nm) under various conditions.
After irradiation with a laser beam, 0.01 ml of Cell Counting Kit-8 (Dojindo Laboratories, hereinafter referred to as CCK-8) was added to the medium in each well, the plate was incubated for 2 h, and then absorbance was measured to obtain the cell lethality. For calculation of the cell lethality, the property of a coloring reagent in CCK-8 of producing a color upon reduction with dehydrogenase in the cell was utilized. Six samples were examined.
The experimental conditions were as follows.
(i) Relationship between photosensitizer concentration and cell lethality
Agent concentrations: 10, 20, 30, 40 μg/ml
as §1
Total energy density: 3 J/cm^2
(ii) Relationship between total energy density of laser irradiation and cell lethality
Agent concentrations: 7.5, 15 μg/ml
Total energy density: 3, 6, 9, 12 J/cm^2
(iii) Relationship between laser intensity and cell lethality

[3] = tested on: isolated ventricular muscle tissue; assay: Formation of electrical conduction block by PDT in isolated cardiac muscle tissue; set-up: species or system Wister rat; details: 4.3 μg/ml
Experimental: An electrical conduction block was formed by performing PDT using a cardiac muscle tissue.
A cardiac muscle tissue was isolated from a Wister rat, immersed in a perfusion fluid (Tyrode's solution [aerated with 95% O2 and 5% CO2 gases and stored at 37° C. in a constant-temperature apparatus]), spread, fixed on the floor (made of silicon) of a tissue bath with a tungsten wire to prepare a spread sample (maximum 1.5 cm long, 1.0 cm width, 0.18 cm thickness) of an isolated ventricular muscle. A perfusion fluid was passed through the spread sample and stabilized by allowing to stand for approx. 3 h. At this time, the perfusion fluid was not reused.
As a photosensitizer, talaporfin sodium was dissolved in a perfusion fluid at 4.3 μg/ml, and 300 cc was circulated and perfused. It is assumed that, when a photosensitizer is intravenously injected to a 300-g rat at approx. 2 mg/kg, the photosensitizer is dissolved at about this concentration in the fluid throughout the body. After loading for 2 h, a liquid level of the perfusion fluid was lowered to the tissue surface or lower, and the spread tissue was irradiated with a laser beam.
The irradiation laser beam was a continuous semiconductor laser beam (peak wavelength, 670.8 nm) and was delivered to the tissue from an irradiation port of 0.0078 cm^2 at the fiber end with an intensity of 150 mW/cm^2 in a contact state. While moving the fiber, a 0.1-cm^2 (0.1 cm length×1 cm width) region of the tissue surface was irradiated with a laser beam for 5 min. Irradiation was performed at 3.5 J/cm^2 in terms of total energy density.
The tissue action potential was measured as follows. An electrical stimulus of 2 Hz and 50 mA was applied from a bipolar electrode (0.2φ silver wire) using a stimulator, and a potential of the tissue surface was led with a bipolar measuring electrode (0.25φ stainless wire).
FIGS. 8A to 8F show changes in the potential of the spread tissue. In FIGS. 8A to 8F, the upper line represents potential changes at site 1 in FIG. 7. The lower line represents potential changes at site 2 in FIG. 7. The unit of the vertical axis is mV.

C=Cc1c(C)c2cc3nc(c(CC(=O)N[C@@H](CC(=O)O)C(=O)O)c4[nH]c(cc5nc(cc1[nH]2)C(C)=C5CC)c(C)c4C(=O)O)[C@@H](CCC(=O)O)[C@@H]3C [talaporfin sodium, mono-L-aspartyl chlorine 6]
Restart of pulsation in cardiac muscle cells: (number of samples in which pulsation restarted)/(total number of samples) ([1]; 5 μg (μg/ml), 1J, 1 d after PDT): 4/8 | Restart of pulsation in cardiac muscle cells: (number of samples in which pulsation restarted)/(total number of samples) ([1]; 5 μg (μg/ml), 1J, 2 d after PDT): 8/8 | Restart of pulsation in cardiac muscle cells: (number of samples in which pulsation restarted)/(total number of samples) ([1]; 5 μg (μg/ml), 1J, 3 d after PDT): 8/8 | Restart of pulsation in cardiac muscle cells: (number of samples in which pulsation restarted)/(total number of samples) ([1]; 5 μg (μg/ml), 2J, 1 d after PDT): 1/8 | Restart of pulsation in cardiac muscle cells: (number of samples in which pulsation restarted)/(total number of samples) ([1]; 5 μg (μg/ml), 2J, 2 d after PDT): 8/8 | Restart of pulsation in cardiac muscle cells: (number of samples in which pulsation restarted)/(total number of samples) ([1]; 5 μg (μg/ml), 2J, 3 d after PDT): 8/8 | Restart of pulsation in cardiac muscle cells: (number of samples in which pulsation restarted)/(total number of samples) ([1]; 5 μg (μg/ml), 3J, 1 d after PDT): 0/8 | Restart of pulsation in cardiac muscle cells: (number of samples in which pulsation restarted)/(total number of samples) ([1]; 5 μg (μg/ml), 3J, 2 d after PDT): 7/8 | Restart of pulsation in cardiac muscle cells: (number of samples in which pulsation restarted)/(total number of samples) ([1]; 5 μg (μg/ml), 3J, 3 d after PDT): 8/8 | Restart of pulsation in cardiac muscle cells: (number of samples in which pulsation restarted)/(total number of samples) ([1]; 5 μg (μg/ml), 5J, 1 d after PDT): 0/8 | Restart of pulsation in cardiac muscle cells: (number of samples in which pulsation restarted)/(total number of samples) ([1]; 5 μg (μg/ml), 5J, 2 d after PDT): 8/8 | Restart of pulsation in cardiac muscle cells: (number of samples in which pulsation restarted)/(total number of samples) ([1]; 5 μg (μg/ml), 5J, 3 d after PDT): 8/8 | Restart of pulsation in cardiac muscle cells: (number of samples in which pulsation restarted)/(total number of samples) ([1]; 10 μg (μg/ml), 1J, 1 d after PDT): 0/8 | Restart of pulsation in cardiac muscle cells: (number of samples in which pulsation restarted)/(total number of samples) ([1]; 10 μg (μg/ml), 1J, 2 d after PDT): 8/8 | Restart of pulsation in cardiac muscle cells: (number of samples in which pulsation restarted)/(total number of samples) ([1]; 10 μg (μg/ml), 1J, 3 d after PDT): 8/8 | Restart of pulsation in cardiac muscle cells: (number of samples in which pulsation restarted)/(total number of samples) ([1]; 10 μg (μg/ml), 2J, 1 d after PDT): 0/8 | Restart of pulsation in cardiac muscle cells: (number of samples in which pulsation restarted)/(total number of samples) ([1]; 10 μg (μg/ml), 2J, 2 d after PDT): 7/8 | Restart of pulsation in cardiac muscle cells: (number of samples in which pulsation restarted)/(total number of samples) ([1]; 10 μg (μg/ml), 2J, 3 d after PDT): 8/8 | Restart of pulsation in cardiac muscle cells: (number of samples in which pulsation restarted)/(total number of samples) ([1]; 10 μg (μg/ml), 3J, 1 d after PDT): 0/8 | Restart of pulsation in cardiac muscle cells: (number of samples in which pulsation restarted)/(total number of samples) ([1]; 10 μg (μg/ml), 3J, 2 d after PDT): 8/8 | Restart of pulsation in cardiac muscle cells: (number of samples in which pulsation restarted)/(total number of samples) ([1]; 10 μg (μg/ml), 3J, 3 d after PDT): 8/8 | Restart of pulsation in cardiac muscle cells: (number of samples in which pulsation restarted)/(total number of samples) ([1]; 10 μg (μg/ml), 5J, 1 d after PDT): 1/8 | Restart of pulsation in cardiac muscle cells: (number of samples in which pulsation restarted)/(total number of samples) ([1]; 10 μg (μg/ml), 5J, 2 d after PDT): 8/8 | Restart of pulsation in cardiac muscle cells: (number of samples in which pulsation restarted)/(total number of samples) ([1]; 10 μg (μg/ml), 5J, 3 d after PDT): 8/8 | pulsation immediately after PDT ([1]; 10 μg/ml, 3 J/cm^2): the pulsation stopped immediately after PDT | cell conditions at one day after PDT ([1]; 10 μg/ml, 3 J/cm^2, FIG. 12): no damage was observed in the cell conditions | restart of pulsation and synchronization ([1]; 10 μg/ml, 3 J/cm^2, see Table 1): the pulsation restarted, and synchronization was observed at about one to three days after experiment | Restart of pulsation in cardiac muscle cells: (number of samples in which pulsation restarted)/(total number of samples) ([1]; 15 μg (μg/ml), 1J, 1 d after PDT): 0/8 | Restart of pulsation in cardiac muscle cells: (number of samples in which pulsation restarted)/(total number of samples) ([1]; 15 μg (μg/ml), 1J, 2 d after PDT): 8/8 | Restart of pulsation in cardiac muscle cells: (number of samples in which pulsation restarted)/(total number of samples) ([1]; 15 μg (μg/ml), 1J, 3 d after PDT): 8/8 | Restart of pulsation in cardiac muscle cells: (number of samples in which pulsation restarted)/(total number of samples) ([1]; 15 μg (μg/ml), 2J, 1 d after PDT): 0/8 | Restart of pulsation in cardiac muscle cells: (number of samples in which pulsation restarted)/(total number of samples) ([1]; 15 μg (μg/ml), 2J, 2 d after PDT): 8/8 | Restart of pulsation in cardiac muscle cells: (number of samples in which pulsation restarted)/(total number of samples) ([1]; 15 μg (μg/ml), 2J, 3 d after PDT): 8/8 | Restart of pulsation in cardiac muscle cells: (number of samples in which pulsation restarted)/(total number of samples) ([1]; 15 μg (μg/ml), 3J, 1 d after PDT): 1/8 | Restart of pulsation in cardiac muscle cells: (number of samples in which pulsation restarted)/(total number of samples) ([1]; 15 μg (μg/ml), 3J, 2 d after PDT): 8/8 | Restart of pulsation in cardiac muscle cells: (number of samples in which pulsation restarted)/(total number of samples) ([1]; 15 μg (μg/ml), 3J, 3 d after PDT): 8/8 | Restart of pulsation in cardiac muscle cells: (number of samples in which pulsation restarted)/(total number of samples) ([1]; 15 μg (μg/ml), 5J, 1 d after PDT): 0/8 | Restart of pulsation in cardiac muscle cells: (number of samples in which pulsation restarted)/(total number of samples) ([1]; 15 μg (μg/ml), 5J, 2 d after PDT): 8/8 | Restart of pulsation in cardiac muscle cells: (number of samples in which pulsation restarted)/(total number of samples) ([1]; 15 μg (μg/ml), 5J, 3 d after PDT): 8/8 | restart of pulsation ([1]; 20 μg/ml, 3 J/cm^2): The pulsation did not restart permanently | cell conditions at one day after PDT ([1]; 20 μg/ml, 3 J/cm^2, FIG. 13): Associated cells were separated, and individual cells themselves shrank | cell death vs total energy density ([2]; 7.5 μg/ml, 150 mW/cm^2, 3, 6, 9, 12 J/cm^2, FIG. 2): almost no cell death was observed | cell lethality vs total energy density ([2]; 15 μg/ml, 150 mW/cm^2, 3, 6, 9, 12 J/cm^2, FIG. 2): the greater the total energy density of laser irradiation was, the higher the cell lethality was | cell lethality at 40 μg/ml ([2]; 40 μg/ml vs 30 μg/ml, 150 mW/cm^2, 3 J/cm^2): the result did not differ from that at 30 μg/ml | cell lethality vs laser intensity ([2]; 7.5, 15 μg/ml, 3 J/cm^2, laser intensity 50 to 200 mW/cm^2, FIG. 3): the cell lethality did not change | cell lethality vs photosensitizer concentration ([2]; up to 30 μg/ml, 150 mW/cm^2, 3 J/cm^2, FIG. 1): the higher the photosensitizer concentration was, the higher the cell lethality was | time without electrical conduction after block ([3]; loading 2 h, 3.5 J/cm^2): ≥ 1 h | electrical conduction (potential at site 2) ([3]; loading 2 h, 3.5 J/cm^2, 5 min after the completion of laser irradiation): the electrical conduction route was completely blocked | electrical conduction (potential at site 2) ([3]; loading 2 h, 150 mW/cm^2, 5 min after the start of laser irradiation): a portion of the stimulus conduction route is blocked | cell conditions in tissue sample at PDT site ([3]; 3.5 J/cm^2, FIG. 9): no major abnormality was observed in the cell conditions
